# Assay results: patent US9200046B2, “Reporter system for high throughput screening of compounds and uses thereof” (priority 2011, dated 2015)
# Structures can show the parent of a compound that is named as a salt. Where two headings read alike, the source gives them in different places.
# Molecular target: Nrf2-Keap1 complex (Homo sapiens, UniProt Q14145)
# Test: cell-based
# Type: cell-based
# Details: for activation at 16 µM / activation at 32 µM: 3 h; for activation at 16 µM: read-out: Activation 100 nL; for activation at 32 µM: read-out: Activation 200 nL
# [1] = Table 2, 100 nL compound, screen run at 16 and 32 μM, 3 hr
# [2] = Table 2, 200 nL compound, screen run at 16 and 32 μM, 3 hr
# [3] = Table 1A, 100 nL compound, screen run at 16 and 32 μM, 3 hr
# [4] = Table 1A, 200 nL compound, screen run at 16 and 32 μM, 3 hr
# Sequence of Nrf2-Keap1 complex (Q14145 whole entry, one chain of several): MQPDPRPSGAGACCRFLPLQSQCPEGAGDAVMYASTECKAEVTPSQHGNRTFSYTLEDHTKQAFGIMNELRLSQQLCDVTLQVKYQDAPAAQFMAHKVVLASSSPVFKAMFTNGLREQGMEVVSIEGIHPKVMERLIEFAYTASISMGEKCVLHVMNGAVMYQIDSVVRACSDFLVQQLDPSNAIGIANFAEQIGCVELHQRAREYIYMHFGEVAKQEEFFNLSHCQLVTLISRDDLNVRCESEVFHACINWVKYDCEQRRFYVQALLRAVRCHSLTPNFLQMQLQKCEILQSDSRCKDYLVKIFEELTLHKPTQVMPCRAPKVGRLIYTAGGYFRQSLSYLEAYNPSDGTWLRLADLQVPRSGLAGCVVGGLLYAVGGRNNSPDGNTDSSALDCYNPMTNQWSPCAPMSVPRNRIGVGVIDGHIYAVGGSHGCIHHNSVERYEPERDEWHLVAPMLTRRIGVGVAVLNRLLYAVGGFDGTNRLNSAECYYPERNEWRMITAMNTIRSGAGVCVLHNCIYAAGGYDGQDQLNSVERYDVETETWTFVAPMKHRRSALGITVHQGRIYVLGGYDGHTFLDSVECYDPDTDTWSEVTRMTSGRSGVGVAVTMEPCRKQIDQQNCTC
Compound,100 nL (luminescence),200 nL (luminescence),activation at 16 µM,activation at 32 µM,100 nL (luminescence) [1],200 nL (luminescence) [2],100 nL (luminescence) [3],200 nL (luminescence) [4],Activation 100 nL,Activation 200 nL,Neh2-luc reporter activation
O=C1C=C(O)C(=O)c2ccccc21 [LAWSONE],840,1140,54%,34%,,,,,,,
CC1(C)C2(Cl)C(Cl)C(Cl)C(Cl)(C(Cl)Cl)C1(Cl)C2Cl (stereo not drawn) [STROBANE],,,388%,235%,5556,5836,,,,,
COc1cc([C@@H]2c3cc4c(c(O)c3C[C@H]3COC(=O)[C@@H]32)OCO4)cc(OC)c1OC [beta-PELTATIN],,,62%,21%,,,910,836,,,
[…](CAPE),,,,,2508,16,,,245%,−14%,
O=C(/C=C/c1ccc(O)cc1)c1ccc(O)cc1O [ISOLIQUIRITIGENIN],4452,2364,268%,134%,,,,,,,
COc1ccc2c(c1)OC/C(=C/c1ccc(OC)c(OC)c1)C2=O [SAPPANONEATRIMETHYLETHER],,,246%,93%,3652,2586,,,,,
Nc1ncnc2c1ncn2[C@H]1C[C@H](O)[C@@H](CO)O1 [DEOXYADENOSINE],788,390,32%,-3%,,,,,,,
C=C1CC[C@@H]2[C@](C)(CO)[C@H](O)CC[C@@]2(C)[C@@H]1C/C=C1/C(=O)OC[C@H]1O [ANDROGRAPHOLIDE],1404,708,78%,11%,,,,,,,
Oc1cccc2cccnc12 [8-hydroxyquinoline],,,,,,,,,,,60%
"COc1cc2c(c(OC)c1OC)-c1ccc(OC)c(=O)cc1[C@@H](NC(C)=O)CC2 [COLCHICINE, reference compound]",944,840,49%,24%,,,,,,,
COC(=O)NC(=S)Nc1ccccc1NC(=S)NC(=O)OC,,,,,712,836,,,40%,21%,
Oc1cc(O)c2c(c1)O[C@H](c1cc(O)c(O)c(O)c1)[C@H](O)C2 [EPIGALLOCATECHIN],,,33%,-20%,864,28,,,,,
"C[C@@H]1C[C@H]2[C@@H]3CCC4=CC(=O)C=C[C@]4(C)[C@@]3(Cl)[C@@H](O)C[C@]2(C)[C@@]1(OC(=O)c1ccco1)C(=O)CCl [MOMETASONEFUROATE, reference compound]",,,56%,140%,1508,2936,,,,,
CC(=O)O[C@@H]1CC2C(C)(C)C=CC(=O)[C@]2(C)C2CC[C@@]3(C)[C@H](c4ccoc4)OC(=O)C4OC43[C@@]21C (stereo partly drawn) [ISOGEDUNIN],,,,,2724,3188,,,155%,188%,
"COC(=O)Nc1nc2cc(C(=O)c3ccccc3)ccc2[nH]1 [MEBENDAZOLE, reference compound]",,,74%,216%,,,1872,3056,,,
"COc1ccnc(C[S+]([O-])c2nc3cc(OC(F)F)ccc3[nH]2)c1OC (stereo not drawn) [PANTOPRAZOLE, reference compound]",,,25%,60%,,,904,1504,,,
"CCCCC1C(=O)N(c2ccccc2)N(c2ccc(O)cc2)C1=O (stereo not drawn) [OXYPHENBUTAZONE, reference compound]",,,,,1760,3084,,,113%,131%,
COc1ccc2c(c1)OCC(=Cc1ccc(O)c(O)c1)C2=O,,,,,4822,2904,,,292%,169%,

Compound,100 nL (luminescence),200 nL (luminescence),activation at 16 µM,activation at 32 µM,100 nL (luminescence) [1],200 nL (luminescence) [2],100 nL (luminescence) [3],200 nL (luminescence) [4],Activation 100 nL,Activation 200 nL,Neh2-luc reporter activation
CCCCC(CC)CNC(=N)NC(=N)NCCCCCCNC(=N)NC(=N)NCC(CC)CCCC (stereo not drawn) [ALEXIDINEHYDROCHLORIDE],,,101%,-18%,1900,52,,,,,
CC(=O)OC[C@@]1(O)C[C@@]23CC[C@@H]4c5ccoc5CC[C@@]4(C)[C@@H]2CC[C@@H]1C3 [CAFESTOLACETATE],,,81%,67%,1452,1976,,,,,
CC1(C)C2CC(=O)O[C@@]3(C)C4=CC(=O)O[C@@H](c5ccoc5)[C@]4(C)CCC3[C@@]2(C)C=C[C@H]1O (stereo partly drawn) [DEOXYANDIROBINLACTONE],,,40%,52%,964,1124,,,,,
CC(=O)OC1CCC23CC1(C)CCC2C(C)(C)CC3OC(C)=O (stereo not drawn) [CLOVANEDIOLDIACETATE],,,27%,40%,728,1356,,,,,
Cc1cccc2c3c(ccc12)C1=C(C(=O)C3=O)[C@@H](C)CO1 [DIHYDROTANSHINONEI],,,158%,5%,2480,572,,,,,
"CCOc1ccc(C(=O)c2ccc(OC)c(O)c2O)cc1 [2,3-DIHYDROXY-4-METHOXY-4′-ETHOXYBENZOPHENONE]",,,117%,65%,2142,1324,,,,,
CC(C)C1=CC2=CC[C@@H]3[C@](C)(CCC[C@@]3(C)C(=O)O)[C@H]2CC1 [ABIETICACID],1256,1748,67%,57%,,,,,,,
"C[C@]12CCC(=O)C=C1CCc1ccc(O)cc12 [12-HYDROXY-4,4-BISNOR-4,8,11,13-PODOCARPATETRAEN-3-ONE]",,,,,592,768,,,26%,18%,
CC(C)CCCC1(C)C=Cc2c(O)c3c(c(CCC(C)C)c2O1)OC12C(CC4CC1C(C)(C)OC2(CCC(C)C(=O)O)C4O)C3=O (stereo not drawn) [DECAHYDROGAMBOGICACID],,,54%,40%,1184,936,,,,,
"CC(CCc1ccccc1)NC(C)C(O)c1ccc(O)cc1 (stereo not drawn) [NYLIDRINHYDROCHLORIDE, reference compound]",,,42%,22%,,,,,,,
O=C1c2ccccc2C(=O)c2c(O)c(O)cc(O)c21 [PURPURIN],,,54%,41%,1176,952,,,,,
CC(=O)O[C@H]1C[C@@H](O)C(C)(C)[C@@H]2C[C@@H](OC(C)=O)[C@]3(C)[C@H](CC[C@@]4(C)[C@@H](c5ccoc5)OC(=O)[C@H]5O[C@@]534)[C@@]12C [3-DEACETYLKHIVORIN],,,,,1628,2102,,,94%,72%,
"O=C(C=C(O)c1ccccc1)c1ccccc1O [2′,beta-DIHYDROXYCHALCONE]",,,,,2064,44,,,112%,−18%,
COC(=O)/C=C/C(C)=C\C=C\C(C)=C\C=C\C=C(C)\C=C\C=C(C)\C=C\C(=O)O [BIXIN],1880,3036,113%,113%,,,,,,,
CC(C)c1cc2c(c(O)c1O)[C@@]1(C(=O)O)CCCC(C)(C)[C@@H]1CC2 [CARNOSICACID],,,372%,182%,3620,4604,,,,,
CNC(=O)CSP(=S)(OC)OC [DIMETHOATE],,,59%,145%,1148,3772,,,,,
Cc1coc2c1C(=O)C(=O)c1c-2ccc2c1CCCC2(C)C [TANSHINONEIIA],,,354%,87%,5092,2452,,,,,
